Laboratory results published in US9656990B2, “Cathepsin cysteine protease inhibitors” (Merck Sharp & Dohme Corp., priority 2014, dated 2017).

Legend:
human cathepsin F = target: T1, human cathepsin F (Homo sapiens, UniProt Q9UBX1); test: Cathepsin F Assay; type: biochemical; details: IP from dose response curve; Z-Phe-Arg-AMC substrate, pH 5.5; read-out: hCat F (IP (nM))
T1 sequence (Q9UBX1 271-484): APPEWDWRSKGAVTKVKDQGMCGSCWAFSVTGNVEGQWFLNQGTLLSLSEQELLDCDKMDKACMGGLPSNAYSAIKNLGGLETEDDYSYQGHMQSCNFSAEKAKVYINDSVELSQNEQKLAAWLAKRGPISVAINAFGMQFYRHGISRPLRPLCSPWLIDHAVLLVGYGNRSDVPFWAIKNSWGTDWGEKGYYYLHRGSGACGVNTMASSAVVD
In short: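 Human cathepsin F (10 nM) preincubated 15 min at room temperature with compounds in 50 mM MES pH 5.5, 2.5 mM EDTA, 2.5 mM DTT, 10% DMSO. Z-Phe-Arg-AMC (8 μM) added; AMC release read by fluorescence (Ex 360/Em 460 nm) over 20 min, inhibition fit to dose-response model.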

human cathepsin K = human cathepsin K (UniProt P43236, Y175D/V274L, species not given); test: Cathepsin K Assay; type: biochemical; details: IP from dose response curve; Z-Leu-Arg-AMC substrate, pH 5.5; read-out: hrbCat K (IP (nM))

SMILES	IC50 (human cathepsin F) [nM]	IC50 (human cathepsin K) [nM]
N#CC1(NC(=O)[C@@H]2CC3CC3C[C@H]2c2nn(-c3ccc(Cl)cn3)cc2-c2ccc(N3CCS(=O)(=O)CC3)cc2)CC1 (single isomer, unassigned) [Example 154, (1R,3R,4R,6S) or (1S,3R,4R,6R)-4-(1-(5-chloropyridin-2-yl)-4-(4-(1,1-dioxidothiomorpholino)phen-yl)-1H-pyrazol-3-yl)-N-(1-cyanocyclopropyl)bicyclo [4.1.0]heptane-3-carboxamide]	279	0.74
N#Cc1cc(F)ccc1-n1cc(-c2ccc(N3CCS(=O)(=O)CC3)cc2)c([C@@H]2CCCC[C@H]2C(=O)NC2(C#N)CC2)n1 [Example 106, (1R,2R)-2-(1-(2-cyano-4-fluorophenyl)-4-(4-(1,1-dioxidothiomorpholino)phen-yl)-1H-pyrazol-3-yl)-N-(1-cyanocyclopropyl)cyclohex-anecarboxamide]	1920	2.88
N#CC1(NC(=O)[C@@H]2CCC(F)(F)C[C@H]2c2nn(-c3ccc(F)cc3)cc2-c2ccc(N3CCS(=O)(=O)CC3)cc2)CC1 [Example 108, (1R,2R)-N-(1-cyanocyclopropyl)-2-(4-(4-(1,1-dioxidothiomorpholino)phen-yl)-1-(4-fluorophenyl)-1H-pyrazol-3-yl)-4,4-difluorocyclohexanecarbox-amide]	1010	2.32
N#CC1(NC(=O)[C@@H]2CCCC[C@H]2c2nn(-c3ccc(F)cc3)cc2-c2ccc(C(=O)N3CCC(O)CC3)cc2)CC1 [Example 90, (1R,2R)-N-(1-cyanocyclopropyl)-2-(1-(4-fluorophenyl)-4-(4-(4-hydroxypiperidine-1-carbonyl)phenyl)-1H-pyrazol-3-yl)cyclohexanecarboxamide]	1760	8.01
N#Cc1ccc(-n2cc(-c3ccc(N4CCS(=O)(=O)CC4)cc3)c([C@@H]3CCCC[C@H]3C(=O)NC3(C#N)CC3)n2)c(F)c1 [Example 132, (1R,2R)-2-(1-(4-cyano-2-fluorophenyl)-4-(4-(1,1-dioxidothiomorpholino)phen-yl)-1H-pyrazol-3-yl)-N-(1-cyanocyclopropyl)cyclohex-anecarboxamide]	733	2.51
N#CC1(NC(=O)[C@@H]2CCCC[C@H]2c2nn(-c3ccc(F)cn3)c(CO)c2-c2ccc(N3CCS(=O)(=O)CC3)cc2)CC1 [Example 30, (1R,2R)-N-(1-cyanocyclopropyl)-2-(4-(4-(1,1-dioxidothiomorpholino)phen-yl)-1-(5-fluoropyridin-2-yl)-5-(hydroxymethyl)-1H-pyrazol-3-yl)cyclohexanecarboxamide]	5870	11
C[C@@H](C#N)NC(=O)[C@@H]1CCC(F)(F)C[C@H]1c1nn(-c2ncccc2F)cc1-c1ccc(N2CCS(=O)(=O)CC2)cc1 [Example 34, (1R,2R)-N-((S)-1-cyanoethyl)-2-(4-(4-(1,1-dioxidothiomorpholino)phen-yl)-1-(3-fluoropyridin-2-yl)-1H-pyrazol-3-yl)-4,4-difluorocyclohexanecarbox-amide]	2830	5.4
